How the values were obtained:
Assay type in all cases: cell-based, human
MSK-Leuk1 cells [1] = experiment: Quantitative real-time RT-PCR of transcript levels after E2 exposure, MSK-Leuk1 cells; settings: E2 1 nM
Experimental: For all the experiments that involved estradiol (E2) exposure, MSK-Leuk1 cells were cultured in phenol red-free and serum-free DermaLife K Medium (Lifeline Cell Technology, Walkersville, Md.). SCC cells were cultured in their respective media with no phenol red, supplemented with charcoal-stripped serum (Gibco, Carlsbad, Calif.). Cells were incubated for 48 h to remove endogenous estrogens and then plated at 70% confluence. After 24 h, the medium was replaced with either control medium containing vehicle (0.01% ethanol) or medium supplemented with 1 nM E2 (Sigma-Aldrich, St. Louis, Mo.). Cells were harvested after the appropriate treatment period and analyzed.
Quantitative real-time reverse transcription PCR. RNA was extracted from pelleted cultured cells using the RNeasy Mini kit (Qiagen, Valencia, Calif.) and its quality (18S and 28S RNA) was evaluated by gel electrophoresis. cDNA was synthesized from 1 μg of total RNA, using the High Capacity cDNA Archive Kit (Applied Biosystems, Inc., Foster City, Calif.). Three μl of the resulting cDNA were mixed with 12.5 μl of 2× TaqMan® Universal PCR master mix and 1.25 μL of 20× primer mix (Applied Biosystems) in a final reaction volume of 25 μL, according to the manufacturer's instructions. Reactions were performed in triplicate in an Applied Biosystems 7900HT Fast Real-Time PCR System using universal conditions. Transcript levels were quantified and expressed relative to those of the human transferrin receptor (TFRC) as 2^-ΔCt.

HNSCC cells = experiment: Quantitative real-time RT-PCR of transcript levels after E2 exposure, HNSCC cells; settings: E2 1 nM, 24 h
Experimental: Cell lines and treatments. MSK-Leuk1 cells were derived from a dysplastic leukoplakia lesion located adjacent to a SCC of the tongue. MSK-Leuk1 cells were cultured in KGM medium (Lonza, Walkersville, Md.). MSK-Leuk1 cells (passage 33) were determined to be identical to the early passage MSK-Leuk1 cells (Identity Mapping Kit, Coriell Institute for Medical Research, Camden, N.J.). All HNSCC cell lines were derived from patients with SCC of the tongue. SCC9 ([…]) and SCC15 ([…]) cells were cultured in S-MEM medium, supplemented with 2 mM L-glutamine, 100 units/ml penicillin, 100 μg/ml streptomycin and 10% FBS. […]
For all the experiments that involved estradiol (E2) exposure, MSK-Leuk1 cells were cultured in phenol red-free and serum-free DermaLife K Medium (Lifeline Cell Technology, Walkersville, Md.). […] Cells were harvested after the appropriate treatment period and analyzed.
Quantitative real-time reverse transcription PCR. RNA was extracted from pelleted cultured cells using the RNeasy Mini kit (Qiagen, Valencia, Calif.) and its quality (18S and 28S RNA) was evaluated by gel electrophoresis. cDNA was synthesized from 1 μg of total RNA, using the High Capacity cDNA Archive Kit (Applied Biosystems, Inc., Foster City, Calif.). […] Transcript levels were quantified and expressed relative to those of the human transferrin receptor (TFRC) as 2^-ΔCt.

MSK-Leuk1 cells [2] = experiment: Cell proliferation (total DNA, Fluorescent DNA Quantitation kit); settings: vector-expressing MSK-Leuk1 cells, E2 1 nM, 72 h, not statistically significant
Experimental: Cell proliferation. Fifty thousand cells/well were plated in 6-well plates. After the appropriate treatment, the DNA content of the cells, an indirect measure of proliferation, was determined using a Fluorescent DNA Quantitation kit (Bio-Rad Laboratories, Hercules, Calif.). In brief, cells were harvested, sonicated in 0.1× TEN assay buffer (Bio-Rad Laboratories) for 5 s, and incubated with a Hoechst dye mixture (BioRad Laboratories) for 1 h. Total DNA was measured using Fluoroscan Ascent FL (Thermo Fisher Scientific, Waltham, Mass.) at an excitation wavelength of 360 nm and an emission wavelength of 460 nm.

MSK-Leuk1 cells [3] = experiment: Cell motility assay (scratch gap closure); settings: vector or CYP1B1 shRNA, E2 1 nM, 16 h post-scratch
Experimental: Cell motility assay. MSK-Leuk1 cells, expressing either vector or CYP1B1 shRNA, were cultured in phenol red-free and serum-free medium for 48 h and then plated at 70% confluence. After 24 h, the cells were treated with either vehicle or E2 (1 nM) in triplicate, as described above. When cells reached 100% confluence (48 h later), the surface of the cell culture dish was carefully scratched using a micropipette tip, thus making an evenly distributed gap in the cell monolayer. The medium was replaced, and five representative images of each gap were acquired at 0 h using a Nikon TE-2000U wide field inverted microscope (Optical Apparatus Co., Ardmore, Pa.) equipped with a Roper Scientific Cool Snap HQ camera. Another set of 5-10 representative images per gap was obtained following a 16-h incubation. The area devoid of cells was measured on every image using MetaMorph 7.0 (Molecular Devices, Inc., Sunnyvale, Calif.). The gap closure percentages were calculated as (area at 0 h−area at 16 h)/(area at 0 h).
In addition, a time-lapse movie capturing the process of gap closure in vector-expressing MSK-Leuk1 cells was obtained. The medium was replaced with fresh medium containing 25 mM HEPES buffer, and cells were allowed to incubate for 1 h at 37° C. […] The percentage of proliferating cells (those rounded up for cell division) was counted in this representative area.

MSK-Leuk1 cells [4] = experiment: Apoptosis assay (Guava Nexin, annexin V); settings: for decrease of apoptosis: E2 1 nM, 72 h
Experimental: Apoptosis assay. Apoptosis was assessed using the Guava Nexin® (Millipore Corp., Billerica, Mass.). Fifty thousand cells were plated per well in 6-well plates. After the appropriate treatment, floating cells were collected, combined with attached cells following trypsinization, and resuspended in DermaLife® K Medium (Lifeline Cell Technology, Walkersville, Md.) supplemented with 5% FBS. The cell suspension (100 μl) was incubated with 100 μl of Guava Nexin® Reagent for 20 min, according to the manufacturer's instructions. Two thousand cells were analyzed from each sample using the Guava EasyCyte™ system, and the resulting data were expressed as a percentage of apoptotic cells (annexin V positive cells/total number of cells counted).

| induction of CYP1B1 transcript levels over vehicle-treated controls (MSK-Leuk1 cells [1]; 24 h, P=0.0004) [fold] | time of peak induction of CYP1B1 transcripts (MSK-Leuk1 cells [1]; time course) [h] | Compound | levels of COMT and ERβ transcripts post-treatment (MSK-Leuk1 cells [1]) | levels of ERβ, CYP1B1 and COMT transcripts (HNSCC cells) | increase of cell proliferation (MSK-Leuk1 cells [2]) [%] | effect of treatment on motility (gap closure) (MSK-Leuk1 cells [3]) | decrease of apoptosis (MSK-Leuk1 cells [4]; CYP1B1 shRNA-expressing MSK-Leuk1 cells, P=0.015) [%] | decrease of apoptosis (MSK-Leuk1 cells [4]; vector-expressing MSK-Leuk1 cells, P=0.030) [%] | effect on E2-mediated decrease in apoptosis (MSK-Leuk1 cells [4]; MSK-Leuk1 cells, fulvestrant 1 μM added to E2 1 nM) |
| --- | --- | --- | --- | --- | --- | --- | --- | --- | --- |
| 2.3 | 6 | C[C@]12CC[C@@H]3c4ccc(O)cc4CC[C@H]3[C@@H]1CC[C@@H]2O [E2, 17β-estradiol] | remained unaltered | did not alter the level of any of the transcripts of interest | 10 | not affected | 30.1 | 25.5 | – |
| – | – | C[C@]12CC[C@@H]3c4ccc(O)cc4C[C@@H](CCCCCCCCC[S+]([O-])CCCC(F)(F)C(F)(F)F)[C@H]3[C@@H]1CC[C@@H]2O (stereo partly drawn) [fulvestrant] | – | – | – | – | – | – | restored |

— patent US20130217594A1, “METHODS FOR SCREENING COMPOUNDS FOR CAPABILITY TO INHIBIT PREMALIGNANT SQUAMOUS EPITHELIAL CELL PROGRESSION TO A MALIGNANT STATE” (Institute for Cancer Research d/b/a The Research Center of …, priority 2010, published 2013)
